Structures are written as SMILES. Marks after values point to notes of the source that are not given here.

What all share (format): cell-based
In one experiment the test system is NCI-H838. Description: 10-day proliferation (CTG), SPLAM titration + 1000 nM Compound A, Bliss (Example 5; Tables 12-19). The arrangement: key: GDI scale -100 to 100; 0 = cell number at T0; <0 cytotoxic. How it is done: Synergy was measured across the Indisulam titration with 1000 nM Compound A by Bliss Independence analysis. Bliss scores >10 are indicated by “*” and are considered synergistic. […] Synergy as reported using Bliss may be underrepresented within cytotoxic dose ranges. Growth death index values are shown for the combination titration and each single agent Compound A (Cmpd A) and Indisulam on a scale of −100 to 100 with the midpoint (0) being the number of cells at the beginning of the combination (T0). Scores less than 0 are indicated with “**” and are representative of a cytotoxic response. Bliss and GDI values are shown for five MTAP-deficient cell lines: NCI-1H838 (12A), SW900 (12B), RT112/84 (12C), UMUC5 (121D), and UMUC11 (12E).
(§1) A 10-day proliferation assay was performed in a panel of 5 MTAP-deficient and 2 wild type non-small cell lung and bladder cancer cell lines. Optimal cell seeding for all cell lines was determined by assessing the growth over a range of seeding densities in a 384-well format to identify conditions that permitted proliferation for 10 days. Cells were then plated at the optimal seeding density and treated with 20-point, two-fold dilution series of each of four structurally different SPLAMs in combination with a 1000 nM fixed concentration of Compound A. Single agent titrations for Compound A and each SPLAM were included for comparison. Concentrations tested for each SPLAM alone or in combination ranged from 0.04 nM to 20,000 nM. A plate of cells was harvested at the time of compound addition to quantify the number of cells at the start of the combination (T0). For cell quantification, the harvested cells were lysed with Promega CellTiter-Glo (CTG) reagent according to the manufacturer's protocol and the chemiluminescent signal was detected as described in Example 1 above. Cells were incubated with the drug combinations at 37° C. with 5% CO2 for 10 days. Cells were then lysed with CTG and the chemiluminescent signal was measured.
(§2) CTG values obtained after the 10-day treatment were background subtracted and expressed as a percent of the T0 value set at 100%. Data were plotted against compound concentration and fit with a four-parameter equation to generate single agent dose response curves. Percent inhibition was determined for each combination and single agent concentration compared to a DMSO control. In addition, the overall net growth or death of the cells was calculated and reported as a growth death index (GDI) value on a scale of −100 to 100 with the midpoint (0) being the number of cells at the beginning of the combination (T0).
Predicted inhibition was calculated using (Ea+Eb)−(Ea*Eb) where E equals the effect (inhibition) of each single agent (a and b). A difference between the observed inhibition percentage and the predicted inhibition percentage greater than 10% was considered synergistic. A Bliss score was only reported for combinations eliciting >20% growth inhibition (GDI value <80). Since Bliss is calculated based on growth inhibition, scores within cytotoxic dose ranges may not accurately reflect synergistic cytoxicity.
Synergy was measured across the E7820 titration with 1000 nM Compound A by Bliss Independence analysis. Bliss scores >10 are indicated by “*” and are considered synergistic. […] Synergy as reported using Bliss may be underrepresented within cytotoxic dose ranges. Growth death index values are shown for the combination titration and each single agent Compound A (Cmpd A) and Indisulam on a scale of −100 to 100 with the midpoint (0) being the number of cells at the beginning of the combination (T0). Scores less than 0 are indicated by “**” and are representative of a cytotoxic response. Bliss and GDI values are shown for five MTAP-deficient cell lines: NCI-1H838 (14A), SW900 (14B), RT112/84 (14C), UMUC5 (141)), and UMUC11 (14E).
Synergy was measured across the Chloroquinoxaline Sulfonamide titration with 1000 nM Compound A by Bliss Independence analysis.

The subject of another experiment is UMUC11. Description: 10-day proliferation (CTG), Compound B titration + 1000 nM Compound A, Bliss (Example 2). The arrangement: key: GDI, -100 to 100; 0 = cell number at T0. How it is done:
as §1, with “of Compound B” for “of each of four structurally different SPLAMs”, “and Compound B” for “and each SPLAM”, “for Compound A and Compound B” for “for each SPLAM”, “from 0.038” for “from 0.04”
as §2
(§3) Predicted inhibition was calculated using (Ea+Eb)−(Ea*Eb) where E equals the effect (inhibition) of each single agent (a and b). A difference between the observed inhibition percentage and the predicted inhibition percentage greater than 10% was considered synergistic. A Bliss score was only calculated for combinations eliciting >20% growth inhibition (GDI value <80). Since Bliss is calculated based on growth inhibition, scores within cytotoxic dose ranges may not accurately reflect synergistic cytotoxicity.
(§4) Synergy was measured across the Compound B titration with 1000 nM Compound A by Bliss Independence analysis. Bliss scores >10 are indicated by “*” and are considered synergistic. […] Synergy as reported using Bliss may be underrepresented within cytotoxic dose ranges. Growth death index values are shown for the combination titration and each single agent Compound A (Cmpd A) and Compound B (Cmpd B) on a scale of −100 to 100 with the midpoint (0) being the number of cells at the beginning of the combination (T0).

A further experiment concerns SW900. Described as above. The arrangement: key: GDI, -100 to 100; 0 = cell number at T0. Here is the method: as §1, with “of Compound B” for “of each of four structurally different SPLAMs”, “and Compound B” for “and each SPLAM”, “for Compound A and Compound B” for “for each SPLAM”, “from 0.038” for “from 0.04”
as §2, §3, §4

[1] abbreviates: SPLAM 0.04 nM, alone or + 1 uM Cmpd A.
Where [2] appears, read: SPLAM 0.1 nM, alone or + 1 uM Cmpd A.
Where [3] appears, read: SPLAM 0.2 nM, alone or + 1 uM Cmpd A.
[4] abbreviates: SPLAM 0.3 nM, alone or + 1 uM Cmpd A.
The mark [5] stands for this setting: SPLAM 0.6 nM, alone or + 1 uM Cmpd A.
[6] abbreviates: SPLAM 1.2 nM, alone or + 1 uM Cmpd A.
[7] abbreviates: SPLAM 2.4 nM, alone or + 1 uM Cmpd A.
[8] abbreviates: SPLAM 4.9 nM, alone or + 1 uM Cmpd A.
[9] abbreviates: SPLAM 9.8 nM, alone or + 1 uM Cmpd A.
Where [10] appears, read: SPLAM 19.5 nM, alone or + 1 uM Cmpd A.
[11] abbreviates: SPLAM 39.1 nM, alone or + 1 uM Cmpd A.
Setting [12] is: SPLAM 78.1 nM, alone or + 1 uM Cmpd A.
The mark [13] stands for this setting: SPLAM 156.3 nM, alone or + 1 uM Cmpd A.
The mark [14] stands for this setting: SPLAM 312.5 nM, alone or + 1 uM Cmpd A.
Setting [15] is: SPLAM 625 nM, alone or + 1 uM Cmpd A.
[16] abbreviates: SPLAM 1250 nM, alone or + 1 uM Cmpd A.
[17] abbreviates: SPLAM 2500 nM, alone or + 1 uM Cmpd A.
[18] abbreviates: SPLAM 5000 nM, alone or + 1 uM Cmpd A.
[19] abbreviates: SPLAM 10000 nM, alone or + 1 uM Cmpd A.
Setting [20] is: SPLAM 20000 nM, alone or + 1 uM Cmpd A.
[21] abbreviates: Cmpd B 0.04 nM, combo: + 1000 nM Cmpd A.
Where [22] appears, read: Cmpd B 0.1 nM, combo: + 1000 nM Cmpd A.
The mark [23] stands for this setting: Cmpd B 0.2 nM, combo: + 1000 nM Cmpd A.
Where [24] appears, read: Cmpd B 0.3 nM, combo: + 1000 nM Cmpd A.
Where [25] appears, read: Cmpd B 0.6 nM, combo: + 1000 nM Cmpd A.
[26] abbreviates: Cmpd B 1.2 nM, combo: + 1000 nM Cmpd A.
The mark [27] stands for this setting: Cmpd B 2.4 nM, combo: + 1000 nM Cmpd A.
The mark [28] stands for this setting: Cmpd B 4.9 nM, combo: + 1000 nM Cmpd A.
The mark [29] stands for this setting: Cmpd B 9.8 nM, combo: + 1000 nM Cmpd A.
Where [30] appears, read: Cmpd B 19.5 nM, combo: + 1000 nM Cmpd A.
Where [31] appears, read: Cmpd B 39.1 nM, combo: + 1000 nM Cmpd A.
Setting [32] is: Cmpd B 78.1 nM, combo: + 1000 nM Cmpd A.
The mark [33] stands for this setting: Cmpd B 156.3 nM, combo: + 1000 nM Cmpd A.
The mark [34] stands for this setting: Cmpd B 312.5 nM, combo: + 1000 nM Cmpd A.
[35] abbreviates: Cmpd B 625 nM, combo: + 1000 nM Cmpd A.
[36] abbreviates: Cmpd B 1250 nM, combo: + 1000 nM Cmpd A.
The mark [37] stands for this setting: Cmpd B 2500 nM, combo: + 1000 nM Cmpd A.
The mark [38] stands for this setting: Cmpd B 5000 nM, combo: + 1000 nM Cmpd A.
Setting [39] is: Cmpd B 10000 nM, combo: + 1000 nM Cmpd A.
The mark [40] stands for this setting: Cmpd B 20000 nM, combo: + 1000 nM Cmpd A.

On to `Cc1ccc(NS(=O)(=O)c2cccc(C#N)c2)c2[nH]cc(C#N)c12` [Compound E7820, 3-cyano-N-(3-cyano-4-methyl-1H-indol-7-yl)benzenesulfonamide], for which the GDI in the experiment with NCI-H838 (setting [1]), with NCI-H838 (setting [2]), with NCI-H838 (setting [3]), in the experiment with NCI-H838 (setting [4]), in the experiment with NCI-H838 (setting [5]) and with NCI-H838 (setting [6]) was 100 in each case. In addition, the GDI in the experiment with NCI-H838 (setting [7]), with NCI-H838 (setting [8]), with NCI-H838 (setting [9]), in the experiment on NCI-H838 (setting [10]), with NCI-H838 (setting [11]) and in the experiment with NCI-H838 (setting [12]) was 100 throughout. Besides, the GDI is reported as 100 in the experiment on NCI-H838 (setting [13]); 76 with NCI-H838 (setting [14]); 13 in the experiment on NCI-H838 (setting [15]); 4 in the experiment with NCI-H838 (setting [16]); 1 with NCI-H838 (setting [17]); −13** with NCI-H838 (setting [18]). The GDI with NCI-H838 (setting [19]) is −64**; in the experiment with NCI-H838 (setting [20]), −46**.
On to `Nc1nc(=O)n(-c2ccccc2Cl)c2nc(C(F)(F)F)ccc12` [Compound A], for which the “GDI (growth death index), single agent Cmpd A” value in the experiment on NCI-H838 (NCI-H838, 1000 nM Compound A, Table 18A) stood at 49. Also, the GDI with NCI-H838 (single agent Cmpd A, 1000 nM) was 49; in the experiment with UMUC11 (single agent, 1000 nM Cmpd A), 92; with SW900 (single agent, 1000 nM Cmpd A), 99.
For the molecule `NS(=O)(=O)c1ccc(S(=O)(=O)Nc2cccc3c(Cl)c[nH]c23)cc1` [Indisulam, N-(3-chloro-1H-indol-7-yl)benzene-1,4-disulfonamide], the GDI with NCI-H838 (setting [1]), in the experiment with NCI-H838 (setting [2]), in the experiment on NCI-H838 (setting [3]), in the experiment on NCI-H838 (setting [4]), in the experiment with NCI-H838 (setting [5]) and with NCI-H838 (setting [6]) was 100 in each case. Moreover, the GDI with NCI-H838 (setting [7]), in the experiment with NCI-H838 (setting [8]), in the experiment with NCI-H838 (setting [9]), with NCI-H838 (setting [10]), with NCI-H838 (setting [11]) and in the experiment on NCI-H838 (setting [12]) was 100 throughout. The GDI was 100 with NCI-H838 (setting [13]); 54 in the experiment with NCI-H838 (setting [14]); 11 in the experiment with NCI-H838 (setting [15]); 2 in the experiment on NCI-H838 (setting [16]); 1 in the experiment on NCI-H838 (setting [17]); −13** with NCI-H838 (setting [18]). Also, the results for the GDI with NCI-H838 (setting [19]) and in the experiment with NCI-H838 (setting [20]) were −50** and −52**, respectively.
Take `Cc1cc(NC(=O)c2ccc(NS(=O)(=O)CCO)cc2N2CCC3(CC2)CC3)nc(N2CCC(F)(F)CC2)n1` [Compound B, N-(2-(4,4-difluoropiperidin-1-yl)-6-methylpyrimidin-4-yl)-4-((2-hydroxyethyl)sulfonamido)-2-(6-azaspiro[2.5]octan-6-yl)benzamide]: the GDI in the experiment on UMUC11 (setting [21]), in the experiment with UMUC11 (setting [22]), with UMUC11 (setting [23]), in the experiment with UMUC11 (setting [24]), in the experiment with UMUC11 (setting [25]) and in the experiment with UMUC11 (setting [26]) was 100 in each case. The GDI with UMUC11 (setting [27]), in the experiment on UMUC11 (setting [28]), with UMUC11 (setting [29]), in the experiment on UMUC11 (setting [30]), in the experiment with UMUC11 (setting [31]) and with UMUC11 (setting [32]) was 100 in each case. Further, the GDI was determined as 100 with UMUC11 (setting [33]); 87 in the experiment on UMUC11 (setting [34]); 72 in the experiment with UMUC11 (setting [35]); 70 in the experiment with UMUC11 (setting [36]); 74 in the experiment on UMUC11 (setting [37]); 63 in the experiment on UMUC11 (setting [38]). The GDI is listed as 32 in the experiment on UMUC11 (setting [39]); −88 with UMUC11 (setting [40]); 100 in the experiment on SW900 (setting [21]); 100 with SW900 (setting [22]); 100 in the experiment on SW900 (setting [23]); 100 with SW900 (setting [24]). Besides, the GDI was 100 in the experiment on SW900 (setting [25]); 100 with SW900 (setting [26]); 99 with SW900 (setting [27]); 100 with SW900 (setting [28]); 100 in the experiment on SW900 (setting [29]); 100 in the experiment with SW900 (setting [30]). Besides, the GDI in the experiment on SW900 (setting [31]) came out at 99; in the experiment with SW900 (setting [32]), 100; with SW900 (setting [33]) it was 100; with SW900 (setting [34]), 100; in the experiment on SW900 (setting [35]) it was 86; in the experiment with SW900 (setting [36]), 89. For the same molecule, the GDI in the experiment on SW900 (setting [37]) came out at 83; in the experiment with SW900 (setting [38]), 75; in the experiment on SW900 (setting [39]) it was 64; in the experiment with SW900 (setting [40]), 28.

Source of the values: patent publication US20260294915A1, “COMBINATION THERAPY COMPRISING A MAT2A INHIBITOR AND A TOPOISOMERASE INHIBITOR, A SPLICING INHIBITOR SULFONAMIDE, OR A KIF18 INHIBITOR” (IDEAYA BIOSCIENCES, INC., priority 2023, published 2026).
